Experimental data published in patent US20240100131A1, “NOVEL USE OF MPK38/MELK AS THERAPEUTIC AGENT FOR OBESITY OR METABOLIC DISEASES SPECIFIC TO MIDDLE-AGED MEN” (priority 2021, published 2024).
Where a SMILES comes first, the peptide text is derived from it. The star is where a group is joined. Cbz = O=C(OCc1ccccc1)*

Assays:
[1] = system: MPK38; assay: Immunoblot analysis of MPK38 stability and ubiquitination in adipocytes treated with DHT or E2; type: cell-based, mouse; details: for stability of MPK38: adipocytes of 4.5-month-old male and female mice, 10 nM, 24 hours, then cycloheximide 20 μg/ml; for endogenous ubiquitination of MPK38: adipocytes, regardless of gender
Protocol: In order to determine whether or not sex hormones such as testosterone and estrogen affect the kinase activity and expression of MPK38, immunoblot analysis was performed on adipocytes derived from 4.5-month-old normal male and female mice treated with DHT and E2.

[2] = system: MPK38-Mdm2 complex; assay: Endogenous MPK38-Mdm2 complex formation (immunoprecipitation/immunoblot) in adipocytes; type: cell-based, mouse; details: vs control group not treated with DHT or E2
Protocol: Furthermore, since MPK38 physically interacts with Mdm2, whether or not DHT and E2 are involved in the decomposition of MPK38 mediated by Mdm2 was determined.

[3] = system: MPK38-ZPR9 complex; assay: Endogenous MPK38-ZPR9 complex formation in adipocytes; type: cell-based, mouse; details: both females and males
Protocol: (§1) In order to further determine whether or not testosterone increases the stability of MPK38, the effect of DHT on the formation of a complex of MPK38 with either ZPR9 or Trx was analyzed. The reason for this is that ZPR9 or Trx acts as a stabilizer or destabilizer of MPK38.

[4] = system: MPK38-Trx complex; assay: Endogenous MPK38-Trx complex formation in adipocytes; type: cell-based, mouse; details: both females and males
Protocol: as §1

[5] = system: ASK1/TGF-β/p53 signaling; assay: MPK38-dependent ASK1/TGF-β/p53 signaling in adipocytes treated with DHT or E2; type: cell-based, mouse; details: vs control group not treated with DHT or E2; H2O2, TGF-β1 or 5FU stimulation
[6] = system: mouse hepatocytes; assay: Effects of DHT and E2 on lipid metabolism and MPK38 kinase activity in hepatocytes; type: cell-based; details: 10 nM each, compared with adipocytes
[7] = system: castrated MPK38−/− male mice; assay: Testosterone replacement in castrated male mice; type: in vivo, mouse
Protocol: A mixture of ketamine (34 mg/kg), xylazine (6.8 mg/kg) and acepromazine (1.1 mg/kg) was dissolved in saline, and the mice were anesthetized using this solution, and then surgery was performed. The surgical site was shaved and washed, and then sterilized with 70% alcohol. For castration, after abdomen midline incision, castration was performed such that the testes and attached fat pads were left intact. The testes were removed through an incision, but the testicular ducts and blood vessels supplying the testes were ligated with sterile silk suture and the testicular fat pads were put back, followed by closure with sterile silk suture. For sham castration, the testes with attached fat pads were exposed and put back without organ extirpation after abdominal incision, and the incision was closed with sterile silk suture. For ovariectomy, after midline abdominal incision, the uterus, oviducts, and ovaries with the fat pads were left intact. The ovaries were removed through an incision, but the oviduct and blood vessels supplying the ovaries were ligated with sterile silk suture and the ovarian fat pads were put back, followed by closure with sterile silk suture. […] After surgery, mice were monitored until they are fully recovered from anesthesia. […]

SMILES	stability of MPK38 [1]	endogenous ubiquitination of MPK38 [1]	formation of endogenous MPK38-Mdm2 complex [2]	formation of endogenous MPK38-ZPR9 complex [3]	formation of MPK38-Trx complex [4]	ASK1/TGF-β/p53 signaling [5]	effects on lipid metabolism and MPK38 kinase activity in liver cells [6]	stability of MPK38 on exposure to proteasome inhibitor ([1]; 10 μM MG132, treated vs untreated group)	effects of castration on metabolism after testosterone replacement ([7]; castrated male mice, T replacement (FIG. 14))	glucose or lipid metabolism ([7]; middle-aged (7 months old) MPK38−/− male mice, testosterone pellets 25 μg/day)
C[C@]12CCC(=O)C[C@@H]1CC[C@@H]1[C@@H]2CC[C@]2(C)[C@@H](O)CC[C@@H]12 [DHT]	increased	decreased	decreased	increased	decreased	increased	similar	–	–	–
C[C@]12CC[C@@H]3c4ccc(O)cc4CC[C@H]3[C@@H]1CC[C@@H]2O [E2]	decreased	increased	increased	results opposite those of treatment with DHT	results opposite those of treatment with DHT	decreased	similar	–	–	–
CC(C)C[C@@H](C=O)NC(=O)[C@H](CC(C)C)NC(=O)[C@H](CC(C)C)NC(=O)OCc1ccccc1 [MG132] (Cbz-Leu-Leu-Leu-aldehyde)	–	–	–	–	–	–	–	increase	–	–
C[C@]12CC[C@H]3[C@@H](CCC4=CC(=O)CC[C@@]43C)[C@@H]1CC[C@@H]2O [testosterone]	–	–	–	–	–	–	–	–	effects opposite to all of these results	did not affect
